Measurements published in US20170240543A1, “CRYSTALLINE FORMS OF PALBOCICLIB” (Sun Pharmaceutical Industries Limited, priority 2014, published 2017).

Columns and labels:
[1] = Specific surface area (Micromeritic Gemini VII 2390 Surface Analyzer); assay type: physicochemical
Protocol: Specific surface area was determined using a Micromeritic® Gemini® VII 2390 Surface Analyzer (Software: Gemini VII, version 1.03).

[2] = Filterability, electrostatic nature and flowability of the solid; assay type: physicochemical; details: no comparator stated

specific surface area (SSA) [1]: greater than 2 m^2/g | filterability, electrostatic nature, and flowability [2]: improved
Compound: CC(=O)c1c(C)c2cnc(Nc3ccc(N4CCNCC4)cn3)nc2n(C2CCCC2)c1=O [Form V-A, 6-acetyl-8-cyclopentyl-5-methyl-2-[[5-(1-piperazinyl)-2-pyridinyl]amino]pyrido[2,3-d]pyrimidin-7(8H)-one]
